# Test results taken from patent US6414150B1, “4,5-disubstituted imidazole compounds” (SmithKline Beecham Corporation, priority 1996, dated 2002).
# System: human PGHS-2 protein expression in LPS stimulated human monocytes
# Assay: Prostaglandin Endoperoxide Synthase-2 (PGHS-2) assay
# Assay type: cell-based
# Settings: LPS 50 ng/well overnight, Western blot
# Protocol: The following assay describes a method for determining the inhibitory effects of compounds of Formula (I) on human PGHS-2 protein expression in LPS stimulated human monocytes.
# Method: Human peripheral blood monocytes were isolated from buffy coats by centrifugation through Ficoll and Percoll gradients. Cells were seeded at 2×10^6/well in 24 well plates and allowed to adhere for 1 hour in RPMI supplemented with 1% human AB serum, 20 mM L-glutamine, Penicillin-Streptomycin and 10 mM HEPES. Compounds were added at various concentrations and incubated at 37° C. for 10 minutes. LPS was added at 50 ng/well (to induce enzyme expression) and incubated overnight at 37° C. The supernatant was removed and cells washed once in cold PBS. The cells were lysed in […] of cold lysis buffer(50 mM Tris/HCl pH 7.5, 150 mM NaCl, 1% NP40, 0.5% sodium deoxycholate, 0.1% SDS, 300 ug/ml DNAse, 0.1% TRITON X-100, 1 mM PMSF, 1 mM leupeptin, 1 mM pepstatin). The lysate was centrifuged (10,000×g for 10 min. at 4° C.) to remove debris and the soluble fraction was subjected to SDS PAGE. analysis (12% gel). Protein separated on the gel were transferred onto nitrocellulose membrane by electrophoretic means for 2 hours at 60 volts. The membrane was pretreated for one hour in PBS/0.1% Tween 20 with 5% non-fat dry milk. After washing 3 times in PBS/Tween buffer, the membrane was incubated with a 1:2000 dilution of a monospecific antiserum to PGHS-2 or a 1:1000 dilution of an antiserum to PGHs-1 in PBS/Tween with 1% BSA for one hour with continuous shaking. The membrane was washed 3× in PBS/Tween and then incubated with a 1:3000 dilution of horseradish peroxidase conjugated donkey antiserum to rabbit Ig (Amersham) in PBS/Tween with 1% BSA for one hour with continuous shaking. The membrane was then washed 3× in PBS/Tween and the ECL immunodetection system (Amersham) was used to detect the level of expression of prostaglandin endoperoxide synthases-2.
row,Compound,inhibition of LPS induced PGHS-2 protein expression
1,"Fc1ccc(-c2nc3n(c2-c2ccncc2)CCS3)cc1 [6-(4-Fluoro-phenyl)-2,3-dihydro-5-(4-pyridinyl)imidazo[2,1-b]thiazole]",active
2,C[C@@H]1C[C@H]2[C@@H]3CCC4=CC(=O)C=C[C@]4(C)[C@@]3(F)[C@@H](O)C[C@]2(C)[C@@]1(O)C(=O)CO [Dexamethasone],active

# Same assay, conditions: tested up to 10 uM
row,Compound,inhibition of LPS induced PGHS-2 protein expression
1,"C[S+]([O-])c1ccc(-c2nc3n(c2-c2ccncc2)CCC3)cc1 (stereo not drawn) [2-(4-Methylsulfinylphenyl)-3-(4-pyridyl)-6,7-dihydro-(5H)-pyrrolo[1,2-a]imidazole]",inactive
2,CC(Cc1ccc(O)c(O)c1)C(C)Cc1ccc(O)c(O)c1 (stereo not drawn) [NDGA],inactive
3,O=C1CCN(c2ccccc2)N1 [phenidone],inactive
4,COc1ccc(C2CNC(=O)C2)cc1OC1CCCC1 (stereo not drawn) [rolipram],inactive
